Data set [1] relates to DM1 myoblasts. The data set can be described thus: Toxicity by shape and size of the nuclei of DM1 myoblasts. It is filed as cell-based, human. As to conditions: Table 1, 10 μM, 4 days.
In data set [2] the test system is SHARP. The data set can be described thus: SHARP immunofluorescence in DM1 myoblasts. As to conditions: RCN-001 treatment for 4 days (not shown). In kind it is cell-based, human. The method, then: DM1 myoblasts were then treated with 10 μM of either RCN-001 or the vehicle (DMSO) for 4 days and then examined by FISH using a Cy3 (CAG)10 probe.
CUG-RNA foci were detected by performing FISH on untreated DM1 myoblasts and DM1 myoblasts following treatment. For FISH analysis, DM1 myoblasts were plated on a 24-well clear bottom polystyrene plate with circular glass coverslips followed by treatment. Prior to FISH analysis, cells were fixed using 4% paraformaldehyde in 1×PBS for 20 min at room temperature. FISH analysis was performed using a Cy3 conjugated (CAG)10 oligonucleotide probe (Integrated DNA Technologies, Inc.) as described by Taneja et al, 1995 and Dansithong et al, 2005. CUG-RNA foci were observed as a red signal using fluorescence microscopy. Immunofluorescence was performed as described by Dansithong et al, 2008. Endogenous SHARP was detected using SHARP polyclonal antibodies from Bethyl at a dilution of 1:1000. The secondary antibodies conjugated with FITC (Invitrogen) were used at a 1:2000 dilution. Chloride channel 1 (Clcn1 a.k.a. CIC-1) was detected using CIC-1 polyclonal antibodies from Santa Cruz. The secondary antibodies conjugated with Alexa Flour 488 (Invitrogen) were used at a 1:2000 dilution. FISH analysis in mouse muscle section was carried out as described in Mancodi et al, 2000 (9).

Data set [3] has as its system MBNL1 and MBNL2 RNA splicing in DM1 myoblasts. The data set can be described thus: Splicing assay (RT-PCR) for RNAs from DM1 myoblasts. In kind it is cell-based, human. The method, then:
A. Total RNA was isolated from normal (SKMC) myoblasts, untreated DM1 myoblasts and DM1 myoblasts treated with 50 μM RCN-001 or 50 μM Pentamidine for 17 hours and subjected to RT-PCR analysis using the indicated primers sets for MBNL1 and MBNL2 RNAs. GAPDH RNA was amplified in parallel as an internal control. The results of one of three experiments are shown. B. The relative levels of exon inclusion was measured by densitometry and tabulated as mean % exon inclusion +/− standard deviation.
Treatment of DM1 myoblasts with RCN-001 is also sufficient to rescue abnormal RNA splicing. Two RNAs were selected that show abnormal splicing in DM1 myoblasts: MBNL1 and MBNL2. DM1 myoblast were treated with 50 μM RCN-001 for 17 hours after which RNA was isolated and splice variants were analyzed as previously described (20-22).
Splicing assays for RNAs isolated from human myoblasts. DM1 patient myoblasts was treated with 50 μM of RCN-001 or Pentamidine for 17 h as described by Warf et al, 2009. Total RNA was isolated using the RNAeasy mini kit (Qiagen Inc., USA) following manufacture's protocol. cDNA was synthesized using 5 μg of total RNA using First-Strand cDNA synthesis kit (GE Healthcare). PCR amplification was carried out using 150 ng of cDNA for 35 cycles for each target RNA. The primers used for PCR amplification are as follows—
The relative band intensities were measured using densitometry analyses and the percent of exon inclusion was calculated as [exon inclusion/(exon inclusion+exon exclusion)]×100.

Data set [4] concerns CUG foci in HSALR mice. The data set can be described thus: CUG foci (FISH) in muscle of treated HSALR mice. In kind it is in vivo. The following applies: 40 mg/kg i.p. each day for 7 days. The method, then:
Red: CUG foci, detected with a (CAG)10Cy3 probe Blue: DAPI stain of nuclei.
Furthermore, CUG foci, abnormal RNA splicing, myotonia and reduced Clcn1 protein levels are reversed in HSA^LR mice treated with RCN-001: Age and gender matched HSA^LR mice were treated with either vehicle or 40/mgs/kg of RCN-001 injected i.p. each day for 7 days. After treatment CUG foci were examined and RNA isolated from skeletal muscle was subjected to RT-PCR analysis to examine the efficacy of RCN-001 in correcting the splice defects of Clcn1, lbd3 and Serca-1 RNAs, which are abnormally spliced in DM1 (20).
CUG-RNA foci were detected by performing FISH on untreated DM1 myoblasts and DM1 myoblasts following treatment. For FISH analysis, DM1 myoblasts were plated on a 24-well clear bottom polystyrene plate with circular glass coverslips followed by treatment. Prior to FISH analysis, cells were fixed using 4% paraformaldehyde in 1×PBS for 20 min at room temperature. […] CUG-RNA foci were observed as a red signal using fluorescence microscopy. […] Endogenous SHARP was detected using SHARP polyclonal antibodies from Bethyl at a dilution of 1:1000. […] Chloride channel 1 (Clcn1 a.k.a. CIC-1) was detected using CIC-1 polyclonal antibodies from Santa Cruz. […]

Data set [5] deals with HSALR mice. The data set can be described thus: Myotonic runs recorded in muscle of treated HSALR mice. In kind it is in vivo. As to conditions: gastrocnemius muscle, 40 mg/kg IP once a day for 14 days, p<0.05 vs vehicle. From the text:
For all animals the recording electrode was inserted into the test muscle 20 times. The number of myotonic runs ≧1 second in the gastrocnemius muscle of individual HSA^LR mice treated with either the saline control or RCN-001 are shown.
Importantly, RCN-001 reduces the number of myotonic runs of ≧1 second (p<0.05) (FIG. 5), total time of myotonic runs ≧1 sec (4.04 s±2.9 vehicle; 0.99 s±1.4 RCN-001; p<0.05) and length of the longest run (1.96 s±0.97 vehicle; 0.73 s±0.71 RCN-001; p<0.05) in the gastrocnemius muscle of HSA^LR mice. […] Methods are detailed in the legend of FIG. 5.
Treatment in HSALR mice. The HSALR transgenic mice expressing (CTG)250 in the 3′UTR of the human skeletal actin mRNA as described in Mankodi et al, 2000 were utilized for this study (a generous gift from Dr. Charles Thornton). Treatment in mice was done by intraperitoneal injection using 40 mg/kg once a day for 7 or 14 days of RCN-001 or vehicle alone. Total RNA was isolated from skeletal muscle of treated HSALR mice using Trizole (Invitrogen, USA) following the manufacture's protocol. cDNA synthesis and PCR was performed as described in Dansithong et al, 2008. PCR amplification was carried out with the following primers—

In data set [6] the test system is normal and DM1 myoblasts. The data set can be described thus: Off-target splicing and RNA steady-state levels (semi-quantitative RT-PCR) in myoblasts. In kind it is cell-based, human. An excerpt:
Semi-quantitative RT-PCR was done as previously described (7,17, 23). Abbreviations: U: Untreated; V: vehicle treated; 16: treated with RCN-001.
(§1) Results for wild-type and HSA^LR mice are not shown.

For data set [7], the system named is wild-type and HSALR mice. The data set can be described thus: Off-target splicing and RNA steady-state levels in mice. It is filed as in vivo.
Text: as §1

With `CCCCCCc1cc2cc(-c3nnc(-c4cccc(OC)c4)o3)c(=O)oc2cc1O` [RCN-001], the “Toxicity: Toxic” value in data set [1] is “++++ (60% alterations in nuclei shape and size)”. The “SHARP mislocalization / nuclear SHARP levels in DM1 myoblast” value in data set [2] was “significantly reversed SHARP mislocalization and re-established nuclear SHARP levels”. Also, the “rescue of abnormal splicing of MBNL1 and MBNL2” value in data set [3] (50 μM, 17 hours, RT-PCR) was “significantly rescues abnormal splicing of MBNL1 and MBNL2”. Moreover, the “rescue of aberrant splicing of MBNL1, MBNL2, and IR in DM1 myoblasts” value in data set [3] (FIG. 6B, semi-quantitative RT-PCR) is “rescues aberrant splicing”. In addition, the “load of the CUG foci” value in data set [4] is reported as “reduced”. The “number of myotonic runs of ≧1 second” value in data set [5] is “reduces”. Also, the “off target effects on steady-state levels of endogenous (CUG)6-25 repeat encoding RNAs” value in data set [6] (normal and DM1 myoblasts (FIG. 6C)) is recorded as “does not show significant off target effects”; in data set [7] (wild-type and HSALR mice (not shown)) it was “does not show significant off target effects”. Further, the “splice patterns of RNAs that are abnormally spliced in DM1” value in data set [6] (normal myoblasts (FIG. 6B)) and in data set [7] (wild-type mice (not shown)) was “does not alter splice patterns” each time. In addition, the “splice patterns of RNAs that are normally spliced in DM1” value in data set [6] (normal or DM1 myoblasts (FIG. 6A)) and in data set [7] (wild-type or HSALR mice (not shown)) was “does not alter splice patterns” throughout.

The record behind these values is patent publication US20140121236A1, “Compositions and Methods for Treating Myotonic Dystrophy Type 1” (UNIVERSITY OF SOUTHERN CALIFORNIA, priority 2012, published 2014).
